What follows are molecules tested against human MER (528-end) (Homo sapiens (Human), UniProt Q12866) (assay: HTRF Kinase Activity Biochemical Assay (KinEASE-TK)). Settings: 10 uM ATP.
Protocol: For the SAR (structure-activity relationship) and compound screening, HTRF (Homogeneous Time Resolved Fluorescence) kinase activity assay was employed for all MER, AXL and TYRO3 kinases using Cisbio HTRF® KinEASE™-TK kit (Cisbio, USA). The kit includes biotin-labeled TK substrate, streptavidin-XL665, Eu3+-cryptate-labeled TK antibody and HTRF® Detection buffer. There are two main steps in the kinase assay: kinase reaction and detection of phosphorylated substrate. The reaction was carried out in white low volume 384-well plate (Corning, USA) with 25 nL compound in dimethyl sulfoxide in each well. […] Then the reaction was stopped after 1 hour incubation at room temperature by adding 5 uL of HTRF® Detection buffer which also contains 0.375 nM Eu3+-cryptate-labeled TK antibody and 0.062 uM streptavidin-XL665(SA-XL665) to allow for detection of the phosphorylated peptide product. After 1 h incubation at room temperature, the fluorescence intensity was measured with Envision™ plate reader (PerkinElmer, USA). Upon excitation at 340 nm by UV, the energy from Eu3+ donor of the antibody is transferred to the FRET acceptor XL665, and […] emits light at 665 nm. The level of kinase activity was quantified by the HTRF ratio that calculated from the intensity of emission at 665 nm and emission at 620 nm (fluorescence intensity @ 665 nm/fluorescence intensity @ 620 nm×10,000). The recombinant protein of human MER (528-end) was purchased from Carnabio, Japan. The recombinant human AXL (473-end) and TYRO3 (455-end) were purchased from SignalChem, Canada.

Chain of human MER (528-end) (Q12866 528-999 limits assumed): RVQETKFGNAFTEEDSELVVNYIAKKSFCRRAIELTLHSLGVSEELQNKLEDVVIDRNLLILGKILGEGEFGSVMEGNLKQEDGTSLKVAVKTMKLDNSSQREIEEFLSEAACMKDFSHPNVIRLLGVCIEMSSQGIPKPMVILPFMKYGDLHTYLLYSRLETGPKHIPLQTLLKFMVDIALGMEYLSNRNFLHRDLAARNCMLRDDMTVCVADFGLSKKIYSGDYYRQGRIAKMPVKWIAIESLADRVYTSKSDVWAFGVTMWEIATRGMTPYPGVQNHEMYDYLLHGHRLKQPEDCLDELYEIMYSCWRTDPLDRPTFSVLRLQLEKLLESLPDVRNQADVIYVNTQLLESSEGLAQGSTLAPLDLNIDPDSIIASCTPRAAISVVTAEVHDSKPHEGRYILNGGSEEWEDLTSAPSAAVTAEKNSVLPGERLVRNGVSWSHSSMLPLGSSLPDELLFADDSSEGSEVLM

Row | Molecule | IC50 [µM]
1 | 2-amino-N—((R)-1-(3-(((R)-2-(hydroxymethyl)pyrrolidin-1-yl)methyl)-[1,1′-biphenyl]-3-carbonyl)pyrrolidin-3-yl)-5-(1-methyl-1H-pyrazol-4-yl)nicotinamide [Example 462] | > 1
2 | Cn1cc(-c2cnc(N)c(C(=O)N[C@@H]3CCN(C(=O)Nc4cccc(F)c4)C3)c2)cn1 [Example 2, (R)-2-amino-N-(1-((3-fluorophenyl)carbamoyl)pyrrolidin-3-yl)-5-(1-methyl-1H-pyrazol-4-yl)nicotinamide] | > 1
3 | Cn1cc(-c2cnc(N)c(C(=O)N[C@@H]3CCN(C(=O)Nc4ccc(F)c(F)c4)C3)c2)cn1 [Example 3, (R)-2-amino-N-(1-((3,4-difluorophenyl)carbamoyl)pyrrolidin-3-yl)-5-(1-methyl-1H-pyrazol-4-yl)nicotinamide] | > 1
4 | Cc1cc(C)cc(NC(=O)N2CC[C@@H](NC(=O)c3cc(-c4cnn(C)c4)cnc3N)C2)c1 [Example 4, (R)-2-amino-N-(1-((3,5-dimethylphenyl)carbamoyl)pyrrolidin-3-yl)-5-(1-methyl-1H-pyrazol-4-yl)nicotinamide] | > 1
5 | Cn1cc(-c2cnc(N)c(C(=O)N[C@@H]3CCN(C(=O)Nc4cc(C(F)(F)F)cc(C(F)(F)F)c4)C3)c2)cn1 [Example 5, (R)-2-amino-N-(1-((3,5-bis(trifluoromethyl)phenyl)carbamoyl)pyrrolidin-3-yl)-5-(1-methyl-1H-pyrazol-4-yl)nicotinamide] | > 1
6 | Cn1cc(-c2cnc(N)c(C(=O)N[C@@H]3CCN(C(=O)Nc4ccc(C(F)(F)F)cc4)C3)c2)cn1 [Example 6, (R)-2-amino-5-(1-methyl-1H-pyrazol-4-yl)-N-(1-((4-(trifluoromethyl)phenyl)carbamoyl)pyrrolidin-3-yl)nicotinamide] | > 1
7 | CC(C)NC(=O)N1CC[C@@H](NC(=O)c2cc(-c3cnn(C)c3)cnc2N)C1 [Example 8, (R)-2-amino-N-(1-(isopropylcarbamoyl)pyrrolidin-3-yl)-5-(1-methyl-1H-pyrazol-4-yl)nicotinamide] | > 1
8 | Cn1cc(-c2cnc(N)c(C(=O)N[C@@H]3CCN(C(=O)Nc4ccn(C)n4)C3)c2)cn1 [Example 12, (R)-2-amino-N-(1-((1-methyl-1H-pyrazol-3-yl)carbamoyl)pyrrolidin-3-yl)-5-(1-methyl-1H-pyrazol-4-yl)nicotinamide] | > 1
9 | Cn1cc(-c2cnc(N)c(C(=O)N[C@@H]3CCN(C(=O)Nc4cccc(Cl)c4)C3)c2)cn1 [Example 14, (R)-2-amino-N-(1-((3-chlorophenyl)carbamoyl)pyrrolidin-3-yl)-5-(1-methyl-1H-pyrazol-4-yl)nicotinamide] | > 1
10 | CC(C)Oc1cccc(NC(=O)N2CC[C@@H](NC(=O)c3cc(-c4cnn(C)c4)cnc3N)C2)c1 [Example 16, (R)-2-amino-N-(1-((3-isopropoxyphenyl)carbamoyl)pyrrolidin-3-yl)-5-(1-methyl-1H-pyrazol-4-yl)nicotinamide] | > 1
11 | Cn1cc(-c2cnc(N)c(C(=O)N[C@@H]3CCN(C(=O)Nc4cccc(Oc5ccccc5)c4)C3)c2)cn1 [Example 17, (R)-2-amino-5-(1-methyl-1H-pyrazol-4-yl)-N-(1-((3-phenoxyphenyl)carbamoyl)pyrrolidin-3-yl)nicotinamide] | 0.01 to 0.1
12 | Cn1cc(-c2cnc(N)c(C(=O)N[C@@H]3CCN(C(=O)Nc4ccccc4Oc4ccccc4)C3)c2)cn1 [Example 18, (R)-2-amino-5-(1-methyl-1H-pyrazol-4-yl)-N-(1-((2-phenoxyphenyl)carbamoyl)pyrrolidin-3-yl)nicotinamide] | > 1
13 | CCc1cccc(NC(=O)N2CC[C@@H](NC(=O)c3cc(-c4cnn(C)c4)cnc3N)C2)c1 [Example 19, (R)-2-amino-N-(1-((3-ethylphenyl)carbamoyl)pyrrolidin-3-yl)-5-(1-methyl-1H-pyrazol-4-yl)nicotinamide] | > 1
14 | Cn1cc(-c2cnc(N)c(C(=O)N[C@@H]3CCN(C(=O)Nc4ccccc4Cl)C3)c2)cn1 [Example 21, (R)-2-amino-N-(1-((2-chlorophenyl)carbamoyl)pyrrolidin-3-yl)-5-(1-methyl-1H-pyrazol-4-yl)nicotinamide] | > 1
15 | Cn1cc(-c2cncc(C(=O)N[C@@H]3CCN(C(=O)Nc4cc(Cl)cc(Cl)c4)C3)c2)cn1 [Example 22, (R)—N-(1-((3,5-dichlorophenyl)carbamoyl)pyrrolidin-3-yl)-5-(1-methyl-1H-pyrazol-4-yl)nicotinamide] | > 1
16 | Cn1cc(-c2cnc(N)c(C(=O)N[C@@H]3CCN(C(=O)Nc4cccc(-c5ccccc5)c4)C3)c2)cn1 [Example 23, (R)—N-(1-([1,1′-biphenyl]-3-ylcarbamoyl)pyrrolidin-3-yl)-2-amino-5-(1-methyl-1H-pyrazol-4-yl)nicotinamide] | 0.1 to 1
17 | Cn1cc(-c2cnc(N)c(C(=O)N[C@@H]3CCN(C(=O)Nc4ccc(Br)cc4)C3)c2)cn1 [Example 25, (R)-2-amino-N-(1-((4-bromophenyl)carbamoyl)pyrrolidin-3-yl)-5-(1-methyl-1H-pyrazol-4-yl)nicotinamide] | > 1
18 | Cn1cc(-c2cnc(N)c(C(=O)N[C@@H]3CCN(C(=O)Nc4cccc(CN5CCOCC5)c4)C3)c2)cn1 [Example 26, (R)-2-amino-5-(1-methyl-1H-pyrazol-4-yl)-N-(1-((3-(morpholinomethyl)phenyl)carbamoyl)pyrrolidin-3-yl)nicotinamide] | > 1
19 | Cn1cc(-c2cnc(N)c(C(=O)N[C@H]3CCN(C(=O)Nc4ccccc4)C3)c2)cn1 [Example 27, (S)-2-amino-5-(1-methyl-1H-pyrazol-4-yl)-N-(1-(phenylcarbamoyl)pyrrolidin-3-yl)nicotinamide] | > 1
20 | Cn1cc(-c2cnc(N)c(C(=O)N[C@@H]3CCN(C(=O)N4CCc5c(N)cccc5C4)C3)c2)cn1 [Example 28, (R)-2-amino-N-(1-(5-amino-1,2,3,4-tetrahydroisoquinoline-2-carbonyl)pyrrolidin-3-yl)-5-(1-methyl-1H-pyrazol-4-yl)nicotinamide] | > 1
21 | Cn1cc(-c2cnc(N)c(C(=O)N[C@@H]3CCN(C(=O)N4CCc5cccc(Br)c5C4)C3)c2)cn1 [Example 29, (R)-2-amino-N-(1-(8-bromo-1,2,3,4-tetrahydroisoquinoline-2-carbonyl)pyrrolidin-3-yl)-5-(1-methyl-1H-pyrazol-4-yl)nicotinamide] | > 1
22 | Cn1cc(-c2cnc(N)c(C(=O)N[C@@H]3CCN(C(=O)NC4CCCCC4)C3)c2)cn1 [Example 30, (R)-2-amino-N-(1-(cyclohexylcarbamoyl)pyrrolidin-3-yl)-5-(1-methyl-1H-pyrazol-4-yl)nicotinamide] | 0.1 to 1
23 | Cn1cc(-c2cnc(N)c(C(=O)N[C@@H]3CCN(C(=O)N[C@@H]4CCCC[C@@H]4O)C3)c2)cn1 [Example 31, 2-amino-N—((R)-1-(((1R,2S)-2-hydroxycyclohexyl)carbamoyl)pyrrolidin-3-yl)-5-(1-methyl-1H-pyrazol-4-yl)nicotinamide] | > 1
24 | Cn1cc(-c2cnc(N)c(C(=O)N[C@@H]3CCN(C(=O)N[C@@H]4CCCC[C@H]4O)C3)c2)cn1 [Example 32, 2-amino-N—((R)-1-(((1R,2R)-2-hydroxycyclohexyl)carbamoyl)pyrrolidin-3-yl)-5-(1-methyl-1H-pyrazol-4-yl)nicotinamide] | > 1

From patent publication US12378224B2 (Dong-A Socio Holdings Co., Ltd., priority 2016, dated 2025)
